Laboratory results: patent US9604925B2, “Class II HMG-CoA reductase inhibitors and methods of use” (Purdue Research Foundation, priority 2012, dated 2017)
Values after ≈ are worked out from the molar mass of the structure shown. Marks after values point to notes of the source that are not given here.

How the values were obtained:
[1] = target: S. aureus HMGR (Staphylococcus aureus, UniProt Q9FD86); assay: biochemical
[2] = target: E. faecalis II-HMGR (Enterococcus faecalis, UniProt Q9FD70); assay: biochemical
[3] = system: C. elegans infected with MRSA; assay: Treatment of C. elegans infected with MRSA; settings: MRSA-infected worms, 100 μM
[4] = system: C. elegans infected with VRE; assay: Treatment of C. elegans infected with VRE; settings: VRE-infected worms, 100 μM
[5] = system: Candida albicans ATCC 18804; assay: MIC/MFC against Candida albicans in YM broth; assay type: cell-based; settings: yeast medium broth
Method: Antifungal activities of 22 HMG-CoA Reductase inhibitors were initially tested at 100 μM concentration against Candida albicans ATCC 18804.

[6] = system: Listeria monocytogenes; assay: Screen and MIC/MBC against Listeria monocytogenes; assay type: cell-based
[7] = system: Staphylococcus aureus ATCC 6538 planktonic organisms (not in biofilm); assay: MIC/MBC against planktonic S. aureus ATCC 6538; assay type: cell-based
[8] = system: vancomycin intermediate Staphylococcus aureus (VISA) NRS1; assay: MIC/MBC against clinical VISA isolate
[9] = system: MRSA; assay: Time-kill assay against MRSA in MHB
[10] = system: clinical methicillin-resistant Staphylococcus aureus (MRSA) isolates; assay: MIC/MBC against clinical MRSA isolates
[11] = system: vancomycin resistant Enterococcus faecalis (VRE) ATCC 51299; assay: MIC/MBC micro dilution against VRE; settings: VRE ATCC 51299, MHB, 20 hours
[12] = system: Staphylococcus aureus ATCC 6538 adherent organisms (biofilm); assay: MIC/MBC in adherent-cell biofilm of S. aureus ATCC 6538; assay type: cell-based
Method: An adherent biofilm for susceptibility testing was formed using a clinical isolate of Staphylococcus aureus (ATCC 6538). S. aureus biofilms were prepared in a tissue culture non-treated polystyrene 96-well plate (Corning) and washed with phosphate-buffered saline (PBS) to remove unbound bacteria. Subsequently, serial twofold dilutions of the compounds in MHB were added to wells containing adherent organisms. The polystyrene plates were incubated for 20 h at 37° C. The MIC was taken as the lowest drug concentration at which observable growth was inhibited.

[13] = system: Bacillus cereus; assay: Screen and MIC/MBC against Bacillus cereus; assay type: cell-based
[14] = system: Bacillus anthracis Sterne strain (34F2); assay type: cell-based
[15] = system: Brucella abortus; assay type: cell-based
[16] = system: J774A.1 cells; assay: In vitro cell viability/cytotoxicity MTS assay; assay type: cell-based; settings: 100 μM, 24 hours
Method: Cytotoxicity of the compounds was evaluated using J774A.1 cells (mitochondrial function) in the CellTiter 96® AQueous Non-Radioactive Cell Proliferation Assay (Promega). […] Formazan is measured by measuring the absorbance at 490 nm. Briefly, ˜2×10^4 J774A.1 cells suspended in 200 μL DMEM supplemented with 10% fetal bovine serum (FBS), L-glutamine, NaHCO3, pyridoxine-HCl, and […] glucose and preserved with 1% penicillin-streptomycin solution were seeded in 96-well plates and incubated at 37° C. in a 5% CO2 atmosphere. The cells were cultured for 24 hours (60% confluency) before the assays. The J774A.1 cells were further incubated with 100 μM of compounds (2f, […], 2j, and 2e) and DMSO as a control for 24 hours. The culture media was discarded, and the cells in each well were washed with PBS and re-suspended with 100 μL of cell culture media prior to addition of the assay reagent. The plates were incubated for 4 hours at 37° C. in a humidified 5% CO2 atmosphere. The absorbance at 490 nm was recorded using a 96-well Elisa plate reader (SoftMax ProInc., USA). Results were expressed as the percentage mean absorbance by cells upon incubation with various treatments (compounds 2f, 2j, 2i, and 2e) with respect to incubation with DMSO. The results are expressed as means from six measurements±SD.

[17] = system: Bacillus subtilis; assay: Screen and MIC/MBC against Bacillus subtilis; assay type: cell-based
[18] = system: methicillin-resistant Staphylococcus aureus (MRSA) ATCC 43300; assay: MIC/MBC micro dilution against MRSA

Sequence of S. aureus HMGR (Q9FD86 entry or part of it): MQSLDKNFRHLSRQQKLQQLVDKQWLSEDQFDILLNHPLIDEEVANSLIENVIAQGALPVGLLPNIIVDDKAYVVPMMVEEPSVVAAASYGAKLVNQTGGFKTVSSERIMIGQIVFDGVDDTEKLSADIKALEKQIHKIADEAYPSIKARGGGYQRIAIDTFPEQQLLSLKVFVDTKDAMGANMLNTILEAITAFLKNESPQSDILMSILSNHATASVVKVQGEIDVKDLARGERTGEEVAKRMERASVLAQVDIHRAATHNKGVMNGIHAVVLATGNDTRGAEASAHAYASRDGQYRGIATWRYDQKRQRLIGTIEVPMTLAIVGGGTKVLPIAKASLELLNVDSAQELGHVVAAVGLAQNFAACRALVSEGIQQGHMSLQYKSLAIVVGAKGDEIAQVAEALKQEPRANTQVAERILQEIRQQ

Compound: CCCCc1ccc(NS(=O)(=O)c2ccc(O)c(C(=O)O)c2)cc1 [Compound 1, 5-[N-(4-butylphenyl)sulfamoyl]-2-hydroxybenzoic acid]
- IC50 [1]: 91 ± 5 µM
- IC50 [2]: 5 µM

Compound: CCCCCCCCCCc1ccc(NS(=O)(=O)c2ccc(O)c(C(=O)O)c2)cc1 [Compound 2f, 5-[N-(4-decylphenyl)sulfamoyl]-2-hydroxybenzoic acid]
- Log CFU/worm ([3]; 16 hours treatment): 2.33 ± 0.09 Log CFU/worm
- Log Reduction ([3]; versus DMSO control): 2.71*
- Log CFU/worm ([4]; 16 hours treatment): 0.70 ± 0.37 Log CFU/worm
- Log Reduction ([4]; versus DMSO control): 4.20*
- Candida albicans MFC [5]: 16/16
- Candida albicans MIC [5]: 16/16
- inhibition of growth in initial screen ([6]; 100 μM): showed inhibition of growth
- Listeria monocytogenes MBC ([6]; MHB): > 128 µM
- Listeria monocytogenes MIC ([6]; MHB): 64 µM
- Planktonic organisms (not in biofilm) MBC [7]: 16 µM
- Planktonic organisms (not in biofilm) MIC [7]: 16 µM
- MBC [8]: 4 µM (≈ 1.73 µg/mL)
- MIC [8]: 4 µM (≈ 1.73 µg/mL)
- time-kill of MRSA cells ([9]; 1× MIC or 2× MIC): four hours are required to eliminate bacteria completely
- time-kill of MRSA cells ([9]; 3× MIC): complete elimination of MRSA cells within a two-hour window
- MBC ([10]; MRSA / NRS123 / USA400): 16 µM (≈ 6.94 µg/mL)
- MIC ([10]; MRSA / NRS123 / USA400): 4 µM (≈ 1.73 µg/mL)
- MBC ([10]; MRSA / NRS382 / USA100): 8 µM (≈ 3.47 µg/mL)
- MIC ([10]; MRSA / NRS382 / USA100): 8 µM (≈ 3.47 µg/mL)
- MBC ([10]; MRSA / NRS383 / USA200): 4 µM (≈ 1.73 µg/mL)
- MIC ([10]; MRSA / NRS383 / USA200): 4 µM (≈ 1.73 µg/mL)
- MBC ([10]; MRSA / NRS384 / USA300): 8 µM (≈ 3.47 µg/mL)
- MIC ([10]; MRSA / NRS384 / USA300): 4 µM (≈ 1.73 µg/mL)
- MBC ([10]; MRSA / NRS385 / USA500): 8 µM (≈ 3.47 µg/mL)
- MIC ([10]; MRSA / NRS385 / USA500): 4 µM (≈ 1.73 µg/mL)
- MBC ([10]; MRSA / NRS386 / USA700): 8 µM (≈ 3.47 µg/mL)
- MIC ([10]; MRSA / NRS386 / USA700): 4 µM (≈ 1.73 µg/mL)
- MBC ([10]; MRSA / NRS387 / USA800): 8 µM (≈ 3.47 µg/mL)
- MIC ([10]; MRSA / NRS387 / USA800): 4 µM (≈ 1.73 µg/mL)
- MBC ([10]; MRSA / NRS483): 8 µM (≈ 3.47 µg/mL)
- MIC ([10]; MRSA / NRS483): 4 µM (≈ 1.73 µg/mL)
- MBC ([10]; MRSA / NRS484): 8 µM (≈ 3.47 µg/mL)
- MIC ([10]; MRSA / NRS484): 4 µM (≈ 1.73 µg/mL)
- VRE MBC [11]: 32/32
- Adherent organisms (biofilm) MIC^b ([12]; S. aureus ATCC 6538, 20 h): 64 µM
- Adherent organisms (biofilm) MBC^b ([12]; S. aureus ATCC 6538, regrowth 20 h in antibiotic-free MHB): 128 µM
- IC50 [1]: 7.2 µM
- inhibition of growth in initial screen ([13]; 100 μM): showed inhibition of growth
- Bacillus cereus MBC ([13]; MHB): 16/16
- Bacillus cereus MIC ([13]; MHB): 16/16
- inhibition of growth in initial screen ([14]; 100 μM): showed inhibition of growth
- Bacillus anthracis MBC ([14]; MHB): 16/16
- Bacillus anthracis MIC ([14]; MHB): 16/16
- inhibition of growth in initial screen ([15]; 100 μM): showed inhibition of growth
- Brucella abortus (single value, head does not say MIC or MBC) ([15]; MHB): 128 µM
- percentage mean absorbance at 490 nm (MTS) versus DMSO [16]: no significant differences in percentage mean absorption
- inhibition of growth in initial screen ([17]; 100 μM): showed inhibition of growth
- Bacillus subtilis MBC ([17]; MHB): 16/16
- Bacillus subtilis MIC ([17]; MHB): 16/16
- MRSA MBC ([18]; MRSA ATCC 43300, MHB, 20 hours, Table 2): 16/16
- MBC ([18]; Staphylococcus aureus): 16 µM (≈ 6.94 µg/mL)
- MIC ([18]; Staphylococcus aureus): 16 µM (≈ 6.94 µg/mL)
